Laboratory results: patent US7262173B2, “Chemosensitizing with liposomes containing oligonucleotides” (Georgetown University, priority 1997, dated 2007)

Tests used:
SQ-20B cells [1] = conditions: free ODN 100 μM, 1% serum, previously demonstrated, cited from earlier work
SQ-20B cells [2] = test: Intracellular raf ODN stability assay (PC/CHOL/DDAB liposomes); type: cell-based, human; conditions: 10 μM for 4 hours, then 20% FBS medium up to 24 hours; denaturing gel
Procedure: FIG. 2: (a) Time-course of cellular uptake of LE-ATG-AS raf ODN (SEQ ID NO:1), SQ-20B cells were incubated with ^32P-5 end labeled and an excess of unlabeled LE-ATG-AS raf ODN (SEQ ID NO:1) (10 μM) for indicated times as described in the experimental procedures. Results are mean±s.d from two independent experiments each performed in duplicate, (b) Intracellular stability of LE-ATG-AS raf ODN (SEQ ID NO:1). Cells were incubated with ^32P-end labeled and an excess of unlabeled LE-ATG-AS raf ODN (SEQ ID NO:1) (10 μM in 1% FBS containing medium for […], washed with PBS and then incubations continued in 20% FBS containing medium for 0 hour (lane 2), 2 hours (lane 3), 8 hours (lane 4), 12 hours (lane 5), and 24 hours (lane 6). Cells were lysed and ODNs in various samples were analyzed by denaturing gel electrophoresis as explained in the experimental procedures. Lane 2, radiolabeled control LE-ATG-AS raf ODN (SEQ ID NO: 1); 15-mer, ATG-AS raf ODN (SEQ ID NO:1) migrations of xylene cyanol (XC) and bromophenol blue (BP) are indicated.
For ODN stability studies, cells were seeded and incubated with 10 μM ^32P-labeled LE-ATG-AS raf ODN (SEQ ID NO:1) or ATG-AS raf ODN (SEQ ID NO:1) (1×10^6 c.p.m./ml) for 4 h at 37° C. in 1% FBS containing medium. […] ODNs were extracted with phenol: chloroform, and the aqueous fractions were collected and aliquots were analyzed by scintillation counting. […]

SQ-20B tumor cells = test: Intracellular stability of antisense raf ODN in DMTAP:PC:CHOL liposomes; type: cell-based, human; conditions: 10 μM, 4 hours, 1% serum
Procedure: Stability experiments: SQ-20B tumor cells were incubated with a mixture of radiolabeled-(^32P-γATP) and 10 μM of unlabeled antisense raf oligonucleotide (ATG-AS (SEQ ID NO:1)) either in the liposome encapsulated form (LE-ATG-AS (SEQ ID NO:1)) (FIG. 19, Lane 1) or free form (ATG-AS (SEQ ID NO:1)) (FIG. 19, lane 2). The treatment lasted for 4 hours at 37° C. in 1% serum containing medium. Immediately following incubation, cells were washed with phosphate buffered saline (PBS), detached by trypsinization, and collected by centrifugation. The cell pellet was washed twice with PBS, and cells were then lysed in 10 mM Tris-HCl, 200 mM NaCl, 1% SDS, 200 μg/ml proteinase K, pH 7.4 for 2 hours at 37° C. Oligos were extracted with phenol:chloroform, and aqueous fraction was collected. The samples were normalized for equal radioactivity, and analyzed hy denaturing gel electrophoresis (15% polyacrylamide/7M urea), followed by autoradiography. […]
Stability experiments: SQ-20B tumor cells were incubated with a mixture of radiolabeled (^32P-γATP) and 10 μM of unlabeled antisense raf oligonucleotide (ATG-AS (SEQ ID NO:1)) in the liposome encapsulated form (LE-ATG-AS (SEQ ID NO:1)). […] The samples were normalized for equal radioactivity, and analyzed by denaturing gel electrophoresis (15% polyacrylamide/7M urea), followed by autoradiography. […]

**Q.** Which results are given for “5′-GTG-CTCCATTGATGC-3′ (antisense GTGCTCCATTGATGC; DNA, linkages s1 o12 s1 (s phosphorothioate, o phosphodiester), methylation of C not given here) [ATG-AS raf ODN, antisense ODN to translation initiation site of human c-raf-1 cDNA; one terminal base linkage at each end phosphorothioate]”?
**A.** ODN taken up by SQ-20B cells (SQ-20B cells [1]; at 6 hours): < 2%; maximal uptake by SQ-20B cells (SQ-20B cells [1]; at 12 hours): approximately 4%; intracellular integrity of ODN (SQ-20B cells [2]): no detectable ODN at all time-points; integrity of oligonucleotide in treated cells (SQ-20B tumor cells): degraded form
